Nine compounds from PubChem BioAssay (NCI) can be followed below.

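Grown in 96-well plates, cells were treated for 48 hours with each compound at five concentrations. Insufficient inhibition: endpoint recorded as highest concentration tested. Here, GI50 denotes the concentration required for 50% inhibition of growth. TGI denotes the concentration required for complete inhibition of growth.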

Some test systems named below: OVCAR-8 ovarian; MDA-MB-435; HOP-92 NSCLC; RXF 393 renal; CAKI-1 renal; OVCAR-5 ovarian; HCT-116 colon; K-562 leukemia; DU-145 prostate; NCI-H522 lung.
Common to all, as to assay: growth of human tumour cells (NCI), 48 h

In the case of `COc1cc(/C=C2\CC3C4CC=C5C[C@@H](OC(C)=O)CC[C@]5(C)C4CC[C@]3(C)C2=O)ccc1OCCCn1ccnc1` (stereo not given in full), the GI50 is 11 µM with OVCAR-8 ovarian; 10.3 µM with MDA-MB-435; 25.4 µM in the experiment on HOP-92 NSCLC; 13 µM in the experiment on RXF 393 renal; 5.81 µM with CAKI-1 renal; 11.9 µM in the experiment on OVCAR-5 ovarian. Besides, the GI50 is 13.4 µM in the experiment on HCT-116 colon, 9.69 µM with K-562 leukemia, 1.31 µM with DU-145 prostate and 19 µM in the experiment with NCI-H522 lung. In addition, the TGI with OVCAR-8 ovarian was 21.6 µM; in the experiment with MDA-MB-435, 26.6 µM; in the experiment with HOP-92 NSCLC, more than 50 µM; with RXF 393 renal it was 30.3 µM; in the experiment with CAKI-1 renal, 27.3 µM; in the experiment on OVCAR-5 ovarian it was 40.9 µM. Further, the TGI with HCT-116 colon is 29.6 µM; in the experiment on K-562 leukemia it was 24.7 µM; in the experiment on DU-145 prostate, 10.2 µM; in the experiment on NCI-H522 lung it was more than 50 µM.

Regarding `O=c1[nH]c(=O)n(C2OC(CO)C(O)C2O)c2c1CCCC2` (stereo not given), the TGI in the experiment with OVCAR-8 ovarian, in the experiment with MDA-MB-435, with HOP-92 NSCLC, in the experiment on RXF 393 renal, in the experiment with CAKI-1 renal and with OVCAR-5 ovarian was more than 100 µM in each case. Further, the TGI with HCT-116 colon, in the experiment on K-562 leukemia, with DU-145 prostate and in the experiment on NCI-H522 lung was more than 100 µM throughout.

Consider `OCC1OC(n2ccc3c(NO)ncnc32)C(O)C1O` (stereo not given), for which the GI50 in the experiment with OVCAR-8 ovarian is 0.184 µM; in the experiment on MDA-MB-435, 0.198 µM; with HOP-92 NSCLC it was 0.154 µM; with RXF 393 renal, 0.163 µM; in the experiment on CAKI-1 renal, 0.0472 µM; with OVCAR-5 ovarian, 0.247 µM. Also, the GI50 in the experiment with HCT-116 colon is 0.0296 µM; with K-562 leukemia, 0.201 µM; in the experiment with DU-145 prostate it was 0.111 µM; in the experiment on NCI-H522 lung, 0.188 µM. The TGI came out at 1.94 µM in the experiment on OVCAR-8 ovarian; 0.632 µM in the experiment on MDA-MB-435; 0.608 µM in the experiment with HOP-92 NSCLC; 1.14 µM in the experiment on RXF 393 renal; 0.403 µM in the experiment on CAKI-1 renal; 6.33 µM in the experiment with OVCAR-5 ovarian. In addition, the TGI in the experiment with HCT-116 colon came to 1.03 µM; with K-562 leukemia, 4.53 µM; with DU-145 prostate, 0.702 µM; in the experiment with NCI-H522 lung it was 0.718 µM.

Regarding `C=C1C(=O)OC2CC1C(O)C/C(C)=C/CC/C(C)=C/C(O)CC2C` (stereo not given), the TGI in the experiment with OVCAR-8 ovarian came out at 4.72 µM; with MDA-MB-435, 13.4 µM; in the experiment with HOP-92 NSCLC it was 4.17 µM; in the experiment with RXF 393 renal it was 2.96 µM; with CAKI-1 renal, 8.39 µM; with OVCAR-5 ovarian it was 24.7 µM. The TGI was 3.33 µM in the experiment on HCT-116 colon, more than 30.5 µM with K-562 leukemia, 10.8 µM in the experiment on DU-145 prostate and 0.504 µM in the experiment on NCI-H522 lung.

Turning to `N#Cc1cnc2cc(OC[C@@H](O)CO)c(NC(=O)CC3CSSC3)cc2c1Nc1ccc(OCc2cccc(F)c2)c(Cl)c1`, the GI50 is 0.651 µM in the experiment on OVCAR-8 ovarian; 0.113 µM with MDA-MB-435; 0.919 µM in the experiment with HOP-92 NSCLC; 0.643 µM in the experiment with RXF 393 renal; 6.34 µM in the experiment on CAKI-1 renal; 0.797 µM with OVCAR-5 ovarian. Further, the GI50 with HCT-116 colon was 0.0882 µM; in the experiment on K-562 leukemia it was 0.0945 µM; in the experiment on DU-145 prostate, 0.131 µM; in the experiment with NCI-H522 lung, 0.336 µM. Further, the TGI was 1.85 µM in the experiment on OVCAR-8 ovarian; 0.303 µM in the experiment with MDA-MB-435; 2.06 µM in the experiment on HOP-92 NSCLC; 1.44 µM in the experiment on RXF 393 renal; 18.9 µM with CAKI-1 renal; 1.59 µM in the experiment with OVCAR-5 ovarian. Besides, the TGI in the experiment with HCT-116 colon came to 0.2 µM; with K-562 leukemia, 0.207 µM; in the experiment with DU-145 prostate, 0.398 µM; with NCI-H522 lung, 0.973 µM.

As for `CN1CCCN(C)C1c1cc([N+](=O)[O-])ccc1O`, the TGI in the experiment on OVCAR-8 ovarian was more than 100 µM; in the experiment with MDA-MB-435 it was more than 100 µM; in the experiment with HOP-92 NSCLC it was 76.6 µM; in the experiment with RXF 393 renal, more than 100 µM; in the experiment with CAKI-1 renal, more than 100 µM; with OVCAR-5 ovarian, more than 100 µM. Besides, the TGI in the experiment with HCT-116 colon, in the experiment on K-562 leukemia, in the experiment with DU-145 prostate and in the experiment with NCI-H522 lung was more than 100 µM throughout.

For the compound `Cn1ncc2c(N)nc(N3CCCCC3)nc21`, the GI50 with OVCAR-8 ovarian was 25.9 µM; with MDA-MB-435 it was 24.1 µM; in the experiment with HOP-92 NSCLC, 44.3 µM; in the experiment with RXF 393 renal, 18.2 µM; in the experiment with CAKI-1 renal it was 29 µM; in the experiment with OVCAR-5 ovarian, 38.5 µM. Also, the GI50 is 45.3 µM with HCT-116 colon, 62 µM in the experiment with K-562 leukemia, 19.2 µM in the experiment on DU-145 prostate and 23 µM with NCI-H522 lung. Further, the TGI in the experiment on OVCAR-8 ovarian is 76.1 µM; in the experiment with MDA-MB-435, 81.4 µM; in the experiment with HOP-92 NSCLC it was more than 100 µM; in the experiment with RXF 393 renal, 58.7 µM; in the experiment with CAKI-1 renal it was more than 100 µM; in the experiment on OVCAR-5 ovarian, more than 100 µM. The TGI in the experiment with HCT-116 colon was more than 100 µM; in the experiment on K-562 leukemia, more than 100 µM; with DU-145 prostate it was 74.7 µM; in the experiment with NCI-H522 lung, 63.9 µM.

With `Nc1ccc2c(c1)NCCN2`, the TGI with OVCAR-8 ovarian, in the experiment with MDA-MB-435, with HOP-92 NSCLC, in the experiment with RXF 393 renal, in the experiment on CAKI-1 renal and in the experiment on OVCAR-5 ovarian was more than 100 µM each time. Moreover, the TGI in the experiment with HCT-116 colon, with K-562 leukemia, in the experiment with DU-145 prostate and in the experiment on NCI-H522 lung was more than 100 µM each time.

As for `NNc1cccc(/C=C/c2ccccc2)cc1=O`, the GI50 is 3.74 µM in the experiment with OVCAR-8 ovarian; 4.31 µM in the experiment with MDA-MB-435; 8.71 µM in the experiment with HOP-92 NSCLC; 46.5 µM in the experiment with RXF 393 renal; 2.6 µM in the experiment on CAKI-1 renal; 45.9 µM in the experiment on OVCAR-5 ovarian. Besides, the GI50 in the experiment with HCT-116 colon is 7.3 µM; in the experiment on K-562 leukemia, 3.13 µM; in the experiment with DU-145 prostate, 7.04 µM; in the experiment with NCI-H522 lung, 8.18 µM. In addition, the TGI was more than 100 µM in the experiment with OVCAR-8 ovarian; 50.1 µM with MDA-MB-435; 70.7 µM with HOP-92 NSCLC; more than 100 µM with RXF 393 renal; 8.17 µM in the experiment on CAKI-1 renal; more than 100 µM in the experiment with OVCAR-5 ovarian. Besides, the TGI with HCT-116 colon, with K-562 leukemia, with DU-145 prostate and in the experiment with NCI-H522 lung was more than 100 µM throughout.
